Like-named read-outs stand apart in the source and are kept apart here.
Tests used:
[1] = target: T1, human H1 receptor (Homo sapiens, UniProt P35367); experiment: Histamine H1 receptor binding, competition displacement of [3H]-pyrilamine; conditions: 1 nM [3H]-pyrilamine, membranes from recombinant CHO-K1 cells expressing the human H1 receptor, 1 hour at room temperature; read-out: H1 pKi (converted)
T1 construct: purchased Euroscreen SA, Brussels, Belgium ES-390-M; host or cells: recombinant CHO-K1 cells (membranes)
Procedure: Histamine H1 receptor binding activity of compounds of the invention was assessed by competition displacement of 1 nM [3H]-pyrilamine (Amersham, Bucks, Product code TRK 608, specific activity 30 Ci/mmol) to 2 μg membranes prepared from recombinant CHO-K1 cells expressing the human H1 receptor (Euroscreen SA, Brussels, Belgium, product code ES-390-M) in assay buffer (50 mM Tris pH 7.4 containing 2 mM MgCl2, 250 mM sucrose and 100 mM NaCl) for 1 hour at room temperature.
The following compounds of the invention gave inhibition of [3H]pyrilimine binding: […]

[2] = pKa measurement (Sirius GLpKa); assay type: physicochemical
Procedure: The pKa of a compound of formula (I) is measured using one of the following methodologies.
The apparatus used consists of a Sirius GLpKa instrument with DPAS (Dip Probe Absorption Spectroscopy) attachment. Key elements of the apparatus are a Sirius pH electrode, stirrer, titrant dispensing tubes, a multi-tipped dispenser, motor driven dispensing syringes, fibre optic UV probe and diode array detector. In addition, solutions in PTFE containers of ionic strength adjusted (0.10 M KCl) distilled water, nominally 0.50 M HCl, nominally 0.50 M KOH and 80% v/v methanol:water are also housed within the instrument. The titration solutions are constantly purged with oxygen free nitrogen. The reservoir for the potassium hydroxide solution is further protected from atmospheric contamination by a soda-lime guard-tube. Samples are placed in titration vessels which in turn are placed in a movable autosampler tray (maximum capacity 48 samples). The electrode, stirrer, dispensing tubing/tips and DPAS probe are housed on a movable, automated z-tower unit, which, controlled by software, positions itself in the appropriate titration vessel when titrating. The Sirius GLpKa instrument is directly connected to a dedicated PC supporting software for assay setup and subsequent data analysis. Assays are set up using the GlpKaControl software and results are analysed using the pKaLOGP and pKaUV software on the PC. The software also allows determination of multiple pKas using complex curve fitting analyses.
Method B: Potentiometric Method
Two types of potentiometric titrations may be performed in order to determine a compound's pKa/pKas; a purely aqueous titration (recommended for fairly water soluble compounds) and a cosolvent titration, where variable amounts of methanol are added to the sample in addition to ionic strength adjusted water (recommended for compounds which are not soluble in water). For the latter, a value for the compound's pKa in pure ionic strength adjusted water can be estimated by the Yasuda-Shedlovsky procedure. This involves measuring the apparent pKa of the compound at three known weight percentages of methanol:water (transposed into reciprocals of the dielectric constants of the medium, 1/εr) and then extrapolating to 0 wt % methanol (1/εr=[…]).
The GLpKa instrument unit also houses two aqueous wash containers (containing distilled water), a waste beaker (to dispense extraneous solutions into) and a container holding pH 7.00 buffer solution for the electrode to be immersed in during periods between titrations. Each time a set of titrations is carried out, these solutions are replaced. Position 1 in the autosampler contains a titration vessel containing pH 7.00 buffer solution (changed for each titration set). For each titration set to be run, position 2 houses a titration vessel into which ionic strength adjusted water is dispensed (typically 15.00 mL). This in turn is adjusted to pH 1.80 with aqueous HCl and then titrated to pH 12.20 by gradual addition of aqueous KOH. This is referred to as a blank titration and is employed by the pKaLogP software in order to calibrate the pH electrode and to standardise the HCl solution, using the so-called four-plus parameter procedure. Periodically, (typically every 3 months, or when the titration solutions run low) the titration solutions are replaced and the KOH solution standardised against potassium hydrogen phthalate using a standardisation procedure within the GLpKaControl software. Between 1-2 mg of each sample must be accurately weighed out. Samples are placed in provided glass titration vessels. The weight of compound must be entered into the GLpKaControl software. […]

[3] = ionic strength adjusted (0.10 M KCl) water, Method B: potentiometric method, read-out: pKa (measured using Method B)

T1 sequence (P35367 whole entry): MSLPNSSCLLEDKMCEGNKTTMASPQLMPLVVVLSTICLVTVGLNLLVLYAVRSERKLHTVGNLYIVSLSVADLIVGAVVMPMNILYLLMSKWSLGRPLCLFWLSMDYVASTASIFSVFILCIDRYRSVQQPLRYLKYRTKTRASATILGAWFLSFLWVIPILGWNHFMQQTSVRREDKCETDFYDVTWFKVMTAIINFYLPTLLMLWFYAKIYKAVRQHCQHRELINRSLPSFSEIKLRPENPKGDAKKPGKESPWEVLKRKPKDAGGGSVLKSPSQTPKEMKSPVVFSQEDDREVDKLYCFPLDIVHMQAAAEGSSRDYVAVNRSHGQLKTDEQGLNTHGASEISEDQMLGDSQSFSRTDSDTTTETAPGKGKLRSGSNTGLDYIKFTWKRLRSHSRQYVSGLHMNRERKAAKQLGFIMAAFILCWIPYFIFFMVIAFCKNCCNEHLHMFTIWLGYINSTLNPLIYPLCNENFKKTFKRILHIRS

SMILES	Ki [1] [nM]	pKa [2, 3]	pKa ([2]; method not stated, read-out: measured pKa)
Cc1c(OC2CCN(C[C@H](O)CNC(=O)c3ccc(Cl)c(C(=O)O)c3)CC2)ccc(Cl)c1Cl [Example 42, 2-Chloro-5-[({(2R)-3-[4-(3,4-dichloro-2-methylphenoxy)piperidin-1-yl]-2-hydroxypropyl}amino)carbonyl]benzoic acid]	126		2.3
Cc1c(OC2CCN(C[C@H](O)CNC(=O)COc3cc(C(=O)O)ccc3Cl)CC2)ccc(Cl)c1Cl [Example 44, 4-Chloro-3-[2-({(2R)-3-[4-(3,4-dichloro-2-methylphenoxy)piperidin-1-yl]-2-hydroxypropyl}amino)-2-oxoethoxy]benzoic acid]	12.6		
Cc1c(OC2CCN(C[C@H](O)CNC(=O)c3ccc(Cl)c(OCC(=O)O)c3)CC2)ccc(Cl)c1Cl [Example 45, {2-Chloro-5-[({(2R)-3-[4-(3,4-dichloro-2-methylphenoxy)piperidin-1-yl]-2-hydroxypropyl}amino)carbonyl]phenoxy}acetic acid]	63.1		

Further lines, results first:

Ki [1] [nM]	pKa [2, 3]	pKa ([2]; method not stated, read-out: measured pKa)	SMILES
15.8	7.5		Cc1[nH]nnc1C(=O)NC[C@@H](O)CN1CCC(Oc2ccc(Cl)c(Cl)c2)CC1 [Example 8, N-{(2R)-3-[4-(3,4-Dichlorophenoxy)piperidin-1-yl]-2-hydroxypropyl}-5-methyl-1H-1,2,3-triazole-4-carboxamide]
25.1	3.8		N#Cc1cc(C(=O)NC[C@@H](O)CN2CCC(Oc3ccc(Cl)c(Cl)c3)CC2)c(C2CC2)[nH]c1=O [Example 16, 5-Cyano-2-cyclopropyl-N-[(2R)-3-[4-(3,4-dichlorophenoxy)-1-piperidinyl]-2-hydroxypropyl]-1,6-dihydro-6-oxo-3-pyridinecarboxamide]
316	5.3		CS(=O)(=O)Nc1cc(C(F)(F)F)c(C(=O)NC[C@@H](O)CN2CCC(Oc3ccc(Cl)c(Cl)c3)CC2)cn1 [Example 18, N-{(2R)-3-[4-(3,4-Dichlorophenoxy)piperidin-1-yl]-2-hydroxypropyl}-6-[(methylsulfonyl)amino]-4-(trifluoromethyl)nicotinamide]
15.8	7.4		O=C(NC[C@@H](O)CN1CCC(Oc2ccc(Cl)c(Cl)c2)CC1)c1sc(=O)[nH]c1-c1ccc(F)cc1 [Example 25, N-{(2R)-3-[4-(3,4-Dichlorophenoxy)piperidin-1-yl]-2-hydroxypropyl}-4-(4-fluorophenyl)-2-oxo-2,3-dihydro-1,3-thiazole-5-carboxamide]

— patent US7956070B2, “Piperidines as chemokine modulators (CCR)” (AstraZeneca AB, priority 2004, dated 2011)
